Common to all, as to test: Minimum inhibitory concentration (MIC), serial dilution technique
Holding throughout (type): cell-based

The test system of one test is C. freundii GN346/16. The conditions noted are these: Citrobacter freundii, 10^6 CFU/ml, 35° C., 18 to 20 hours. How it is done:
(§1) Antibacterial activities of the following typical compounds A through E of the present invention represented by formula (I) upon various bacteria were determined by measuring the minimum inhibitory concentrations (MIC) in accordance with the known serial dilution technique. MIC was measured by inoculating 10^6 CFU/ml of each test strain on a Sensitivity Plate Medium N (Nissui Pharmaceutical Co., Ltd.), incubating the plates at 35° C. for 18 to 20 hours and then evaluating the results.

Another test has as its system E. cloacae G-0008. The conditions noted are these: Enterobacter cloacae, G0008, 10^6 CFU/ml, 35° C., 18 to 20 hours. How it is done:
as §1

For a further test, the system named is E. coli NIHJ JC-2. The conditions noted are these: Escherichia coli, NIHJJC2, 10^6 CFU/ml, 35° C., 18 to 20 hours. How it is done:
as §1

A further test deals with E. hirae ATCC8043. The conditions noted are these: Enterococcus hirae, 10^6 CFU/ml, 35° C., 18 to 20 hours. As to the method:
as §1

For the next test, the system named is K. pneumoniae PCI602. The conditions noted are these: Klebsiella pneumoniae, 10^6 CFU/ml, 35° C., 18 to 20 hours. As to the method:
as §1

The next test deals with M. morganii 1510/S-1. The conditions noted are these: Morganella morganii, 1510/S1, 10^6 CFU/ml, 35° C., 18 to 20 hours. How it is done:
as §1

The test system of the next test is P. aeruginosa E-2. The conditions noted are these: Pseudomonas aeruginosa, E2, 10^6 CFU/ml, 35° C., 18 to 20 hours. How it is done:
as §1

The test system of the next test is P. vulgaris GN76. The conditions noted are these: Proteus vulgaris, 10^6 CFU/ml, 35° C., 18 to 20 hours. How it is done:
as §1

For another test, the system named is S. aureus 209P JC-1. The conditions noted are these: Staphylococcus aureus, 10^6 CFU/ml, 35° C., 18 to 20 hours. As to the method: as §1
Another test has as its system S. epidermidis ATCC14990. The conditions noted are these: Staphylococcus epidermidis, 10^6 CFU/ml, 35° C., 18 to 20 hours. How it is done:
as §1

Another test concerns S. marcescens No. 1. The conditions noted are these: Serratia marcescens, 10^6 CFU/ml, 35° C., 18 to 20 hours. How it is done:
as §1

The results in this text go back to patent US5464829A, “Cephalosporin derivatives” (Meiji Seika Kaisha Ltd., priority 1992, dated 1995).

Values after ≈ are worked out from the molar mass of the structure shown.

In the case of `CO/N=C(\C(=O)NC1C(=O)N2C(C(=O)[O-])=C(CSc3nc4c[n+](C)ccc4s3)CSC12)c1csc(N)n1` (stereo not shown) [A, 7-{(Z)-2-(2-aminothiazol-4-yl)-2-methoxyiminoacetamido}-3-(5-methylthiazolo[4,5-c]pyridinium-2-yl)thiomethyl-3-cephem-4-carboxylate], the MIC was 0.1 mg/L (≈ 0.173 µM) against C. freundii GN346/16; 0.05 mg/L (≈ 0.0866 µM) in the test with E. cloacae G-0008; 0.05 mg/L (≈ 0.0866 µM) in the test with E. coli NIHJ JC-2; 1.56 mg/L (≈ 2.7 µM) against E. hirae ATCC8043; 0.05 mg/L (≈ 0.0866 µM) in the test on K. pneumoniae PCI602; less than 0.025 mg/L against M. morganii 1510/S-1. Besides, the minimal inhibitory concentration (MIC) is 50 mg/L (≈ 86.6 µM) against P. aeruginosa E-2; 0.39 mg/L (≈ 0.675 µM) in the test with P. vulgaris GN76; 0.2 mg/L (≈ 0.346 µM) with S. aureus 209P JC-1; 0.2 mg/L (≈ 0.346 µM) with S. epidermidis ATCC14990; 0.05 mg/L (≈ 0.0866 µM) in the test with S. marcescens No. 1.

Consider `CO/N=C(\C(=O)NC1C(=O)N2C(C(=O)[O-])=C(CSc3nc4c(ccc[n+]4C)s3)CSC12)c1csc(N)n1` (stereo not shown) [B, 7-{(Z)-2-(2-aminothiazol-4-yl)-2-methoxyiminoacetamido}-3-(4-methylthiazolo[4,5-b]pyridinium-2-yl)thiomethyl-3-cephem-4-carboxylate], for which the MIC amounted to 0.1 mg/L (≈ 0.173 µM) with C. freundii GN346/16; 0.2 mg/L (≈ 0.346 µM) with E. cloacae G-0008; 0.1 mg/L (≈ 0.173 µM) with E. coli NIHJ JC-2; 50 mg/L (≈ 86.6 µM) against E. hirae ATCC8043; 0.05 mg/L (≈ 0.0866 µM) against K. pneumoniae PCI602; 0.1 mg/L (≈ 0.173 µM) against M. morganii 1510/S-1. The MIC stood at 25 mg/L (≈ 43.3 µM) against P. aeruginosa E-2; 0.2 mg/L (≈ 0.346 µM) with P. vulgaris GN76; 0.2 mg/L (≈ 0.346 µM) against S. aureus 209P JC-1; 0.2 mg/L (≈ 0.346 µM) against S. epidermidis ATCC14990; 0.2 mg/L (≈ 0.346 µM) in the test with S. marcescens No. 1.

In the case of `C[n+]1ccc2sc(SCC3=C(C(=O)[O-])N4C(=O)C(NC(=O)/C(=N\OCC(=O)O)c5csc(N)n5)C4SC3)nc2c1` (stereo not shown) [C, 7-{(Z)-2-(2-aminothiazol-4-yl)-2-carboxymethoxyiminoacetamido}-3-(5-methylthiazolo[4,5-c]pyridinium-2-yl)thiomethyl-3-cephem-4-carboxylate], the MIC against C. freundii GN346/16 is 0.2 mg/L (≈ 0.322 µM); against E. cloacae G-0008, 0.05 mg/L (≈ 0.0804 µM); against E. coli NIHJ JC-2, 0.05 mg/L (≈ 0.0804 µM); with E. hirae ATCC8043 it was 100 mg/L (≈ 161 µM); in the test with K. pneumoniae PCI602, less than 0.025 mg/L; with M. morganii 1510/S-1, less than 0.025 mg/L. Moreover, the MIC against P. aeruginosa E-2 is 12.5 mg/L (≈ 20.1 µM); against P. vulgaris GN76, less than 0.025 mg/L; against S. aureus 209P JC-1, 3.13 mg/L (≈ 5.03 µM); in the test on S. epidermidis ATCC14990, 3.13 mg/L (≈ 5.03 µM); with S. marcescens No. 1 it was less than 0.025 mg/L.

As to `C[n+]1ccc2sc(SCC3=C(C(=O)[O-])N4C(=O)C(NC(=O)/C(=N\OC(C)(C)C(=O)O)c5csc(N)n5)C4SC3)nc2c1` (stereo not shown) [D, 7-{(Z)-2-(2-aminothiazol-4-yl)-2-(1-carboxy-1-methylethoxyimino)acetamido}-3-(5-methylthiazolo[4,5-c]pyridinium-2-yl)thiomethyl-3-cephem-4-carboxylate], the minimum inhibitory concentration (MIC) in the test with C. freundii GN346/16 was 0.39 mg/L (≈ 0.6 µM); with E. cloacae G-0008, 0.2 mg/L (≈ 0.308 µM); in the test with E. coli NIHJ JC-2, 0.2 mg/L (≈ 0.308 µM); in the test with E. hirae ATCC8043, more than 100 mg/L; in the test with K. pneumoniae PCI602 it was 0.2 mg/L (≈ 0.308 µM); against M. morganii 1510/S-1, 0.05 mg/L (≈ 0.077 µM). For the same molecule, the MIC stood at 3.13 mg/L (≈ 4.82 µM) against P. aeruginosa E-2; 0.1 mg/L (≈ 0.154 µM) in the test on P. vulgaris GN76; 3.13 mg/L (≈ 4.82 µM) in the test on S. aureus 209P JC-1; 3.13 mg/L (≈ 4.82 µM) in the test with S. epidermidis ATCC14990; 0.05 mg/L (≈ 0.077 µM) in the test on S. marcescens No. 1.

`C[C@H](O/N=C(\C(=O)NC1C(=O)N2C(C(=O)[O-])=C(CSc3nc4c[n+](C)ccc4s3)CSC12)c1csc(N)n1)C(=O)O` (stereo partly drawn) [E, 7-[(Z)-2-(2-aminothiazol-4-yl)-2-{(S)-1-carboxyethoxyimino}acetamido]-3-(5-methylthiazolo[4,5-c]pyridinium-2-yl)thiomethyl-3-cephem-4-carboxylate]: the MIC in the test on C. freundii GN346/16 is 0.39 mg/L (≈ 0.613 µM); in the test with E. cloacae G-0008, 0.2 mg/L (≈ 0.315 µM); in the test on E. coli NIHJ JC-2, 0.2 mg/L (≈ 0.315 µM); against E. hirae ATCC8043 it was more than 100 mg/L; against K. pneumoniae PCI602, 0.05 mg/L (≈ 0.0786 µM); against M. morganii 1510/S-1 it was 0.05 mg/L (≈ 0.0786 µM). The MIC against P. aeruginosa E-2 was 1.56 mg/L (≈ 2.45 µM); with P. vulgaris GN76, less than 0.025 mg/L; against S. aureus 209P JC-1 it was 1.56 mg/L (≈ 2.45 µM); against S. epidermidis ATCC14990 it was 1.56 mg/L (≈ 2.45 µM); against S. marcescens No. 1, 0.05 mg/L (≈ 0.0786 µM).

Usually MIC stands for the least concentration at which growth counts as inhibited. A higher MIC goes with a need for much substance.
